Values after ≈ are worked out from the molar mass of the structure shown. Where two headings read alike, the source gives them in different places.
Legend:
[1] = test system: Staphylococcus aureus X400; assay: MIC, standard agar-dilution assay (Table V); type: cell-based; conditions: Staphylococcus aureus
Procedure: (§1) Especially noteworthy is the improved activity against gram-negative bacteria for several derivatives when compared to the activity of OMT. […] The MIC's in Tables V and VI were determined by standard agar-dilution assays. The MIC's in Table VII were obtained using a conventional broth-dilution microtiter test.

[2] = test system: Staphylococcus epidermidis EPI2; assay: MIC, standard agar-dilution assay (Table V); type: cell-based; conditions: Staphylococcus epidermidis; S. epidermidis EPI2; agar dilution; read-out: MIC
Procedure: as §1

[3] = test system: Streptococcus Group D X66; assay: MIC, standard agar-dilution assay (Table V); type: cell-based
Procedure: as §1

[4] = test system: Staphylococcus epidermidis EPI1; assay: MIC, standard agar-dilution assay (Table V); type: cell-based; conditions: Staphylococcus epidermidis; S. epidermidis EPI1; agar dilution; read-out: MIC
Procedure: as §1

[5] = test system: Staphylococcus aureus S13E; assay: MIC, standard agar-dilution assay (Table V); type: cell-based; conditions: Staphylococcus aureus, S13E
Procedure: as §1

[6] = test system: Escherichia coli N10; assay: MIC, standard agar-dilution assay (Table V); type: cell-based; conditions: Escherichia coli
Procedure, shortened: (§2)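 Growth inhibition in liquid medium, in a routine microtiter broth-dilution series, gave the MIC against staphylococci and pasteurellae; the gram-negative enteric strain was tested by conventional agar dilution instead.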

[7] = test system: Klebsiella pneumoniae KAE; assay: MIC, standard agar-dilution assay (Table V); type: cell-based; conditions: Klebsiella pneumoniae
Procedure, shortened: as §2

[8] = test system: Shigella sonnei N9; assay: MIC, standard agar-dilution assay (Table V); type: cell-based
Procedure, shortened: as §2

[9] = test system: Streptococcus Group 9960; assay: MIC, standard agar-dilution assay (Table V); type: cell-based; conditions: GROUP9960
Procedure: as §1

[10] = test system: Staphylococcus aureus X1.1; assay: MIC, standard agar-dilution assay (Table V); type: cell-based; conditions: Staphylococcus aureus; S. aureus X1.1; agar dilution; read-out: MIC
Procedure: as §1

[11] = test system: Klebsiella pneumoniae X26; assay: MIC, standard agar-dilution assay (Table V); type: cell-based; conditions: Klebsiella pneumoniae
Procedure: as §1

[12] = test system: Escherichia coli EC14; assay: MIC, standard agar-dilution assay (Table V); type: cell-based; conditions: Escherichia coli
Procedure, shortened: as §2

[13] = test system: Staphylococcus aureus V41; assay: MIC, standard agar-dilution assay (Table V); type: cell-based; conditions: Staphylococcus aureus, V41
Procedure: as §1

[14] = test system: Streptococcus pyogenes C203; assay: ED50 in mice experimentally infected with S. pyogenes C203 (Table VIII); type: in vivo
Procedure: The C-23 modified derivatives of OMT of this invention have shown in vivo antimicrobial activity against experimental infections. When two doses of test compound were administered to mice experimentally infected with a gram-positive bacterium, S. pyogenes C203, the activity observed was measured as an ED50 value [effective dose in mg/kg to protect 50% of the test animals: see Warren Wick, et al., J. Bacteriol. 81, 233-235 (1961)].

[15] = test system: Proteus inconstans PR33; assay: MIC, standard agar-dilution assay (Table VI); type: cell-based; conditions: Providencia alcalifaciens
Procedure: as §1

[16] = test system: Klebsiella pneumoniae X68; assay: MIC, standard agar-dilution assay (Table VI); type: cell-based; conditions: X68
Procedure: as §1

[17] = test system: Salmonella typhi 1335; assay: MIC, standard agar-dilution assay (Table VI); type: cell-based; conditions: Salmonella enterica
Procedure: as §1

[18] = test system: Salmonella heidelberg X514; assay: MIC, standard agar-dilution assay (Table VI); type: cell-based; conditions: Salmonella enterica
Procedure: as §1

[19] = test system: Citrobacter freundii CF17; assay: MIC, standard agar-dilution assay (Table VI); type: cell-based
Procedure: as §1

[20] = test system: Enterobacter cloacae EB5; assay: MIC, standard agar-dilution assay (Table VI); type: cell-based; conditions: E. cloacae EB5, agar dilution, read-out: MIC
Procedure: as §1

[21] = test system: Pseudomonas aeruginosa Ps18; assay: MIC, standard agar-dilution assay (Table VI); type: cell-based; conditions: P. aeruginosa Ps18, agar dilution, read-out: MIC
Procedure: as §1

[22] = test system: Proteus rettgeri PR7; assay: MIC, standard agar-dilution assay (Table VI); type: cell-based; conditions: Providencia rettgeri; P. rettgeri PR7; agar dilution; read-out: MIC
Procedure: as §1

[23] = test system: Pseudomonas aeruginosa X239; assay: MIC, standard agar-dilution assay (Table VI); type: cell-based; conditions: P. aeruginosa X239, agar dilution, read-out: MIC
Procedure: as §1

[24] = test system: Enterobacter aerogenes C32; assay: MIC, standard agar-dilution assay (Table VI); type: cell-based; conditions: Klebsiella aerogenes
Procedure: as §1

[25] = test system: Pasteurella multocida 60A; assay: MIC, broth-dilution microtiter test (Table VII); type: cell-based; conditions: Pasteurella multocida; P. multocida 60A, avian isolate; broth-dilution microtiter; read-out: MIC
Procedure, shortened: (§3)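 Each MIC derives from a dilution series, either on solid agar (Enterobacter aerogenes) or in liquid broth within microtiter plates (staphylococcal and Pasteurella strains).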

[26] = test system: Pasteurella multocida 68C; assay: MIC, broth-dilution microtiter test (Table VII); type: cell-based; conditions: Pasteurella multocida; P. multocida 68C; broth-dilution microtiter; read-out: MIC
Procedure, shortened: as §3

[27] = test system: Pasteurella multocida 40G; assay: MIC, broth-dilution microtiter test (Table VII); type: cell-based; conditions: Pasteurella multocida
Procedure, shortened: as §3

[28] = test system: Mycoplasma gallisepticum; assay: MIC, broth-dilution microtiter test (Table VII); type: cell-based; conditions: Mycoplasmoides gallisepticum; M. gallisepticum; broth-dilution microtiter; read-out: MIC
Procedure: as §1

[29] = test system: Pasteurella hemolytica 41D; assay: MIC, broth-dilution microtiter test (Table VII); type: cell-based; conditions: Pasteurella, P. hemolytica 41D, read-out: MIC
Procedure, shortened: as §3

[30] = test system: Pasteurella hemolytica 22C; assay: MIC, broth-dilution microtiter test (Table VII); type: cell-based; conditions: Pasteurella, P. hemolytica 22C, read-out: MIC
Procedure, shortened: as §3

[31] = test system: Staphylococcus aureus; assay: MIC, broth-dilution microtiter test (Table VII); type: cell-based; conditions: Staphylococcus aureus; S. aureus; broth-dilution microtiter; read-out: MIC
Procedure, shortened: as §3

[32] = test system: Pasteurella multocida 17E; assay: MIC, broth-dilution microtiter test (Table VII); type: cell-based; conditions: Pasteurella multocida; P. multocida 17E, bovine isolate; broth-dilution microtiter; read-out: MIC
Procedure, shortened: as §3

[33] = test system: Pasteurella hemolytica 23C; assay: MIC, broth-dilution microtiter test (Table VII); type: cell-based; conditions: Pasteurella, P. hemolytica 23C, read-out: MIC
Procedure, shortened: as §3

[34] = test system: Pasteurella multocida 22A; assay: MIC, broth-dilution microtiter test (Table VII); type: cell-based; conditions: Pasteurella multocida; P. multocida 22A; broth-dilution microtiter; read-out: MIC
Procedure, shortened: as §3

[35] = test system: Mycoplasma hyorhinis; assay: MIC, broth-dilution microtiter test (Table VII); type: cell-based; conditions: M. hyorhinis; broth-dilution microtiter; read-out: MIC
Procedure: as §1

[36] = test system: Streptococcus sp. 80; assay: MIC, broth-dilution microtiter test (Table VII); type: cell-based; conditions: Streptococcus sp. 80; broth-dilution microtiter; read-out: MIC
Procedure: as §1

[37] = test system: Mycoplasma synoviae; assay: MIC, broth-dilution microtiter test (Table VII); type: cell-based; conditions: Mycoplasmopsis synoviae; M. synoviae; broth-dilution microtiter; read-out: MIC
Procedure: as §1

[38] = C203, sc, mice, subcutaneous, doses given 1 and 4 hours postinfection, read-out: ED50, Subcutaneous

Row | Compound | MIC [2] [µg/mL] | MIC [4] [µg/mL] | MIC [5] [µg/mL] | MIC [7] [µg/mL] | MIC [8] [µg/mL] | MIC [9] [µg/mL] | MIC [10] [µg/mL] | MIC [13] [µg/mL] | ED50 ([14]; C203, po, read-out: ED50, Oral) [mg/kg] | ED50 [14, 38] [mg/kg] | MIC [16] [µg/mL] | MIC [17] [µg/mL] | MIC [20] [µg/mL] | MIC [21] [µg/mL] | MIC [22] [µg/mL] | MIC [23] [µg/mL] | MIC [25] [µg/mL] | MIC [26] [µg/mL] | MIC [28] [µg/mL] | MIC [29] [µg/mL] | also measured
1 | CCC1OC(=O)CC(O)C(C)C(OC2OC(C)C(O)C(N(C)C)C2O)C(CC=O)CC(C)C(=O)C=CC(C)=CC1CF (stereo not shown) [Compound 15, 23-Deoxy-23-fluoro-OMT] | 0.5 (≈ 0.834 µM) | 0.25 (≈ 0.417 µM) | 0.5 (≈ 0.834 µM) | 64 (≈ 107 µM) | 32 (≈ 53.4 µM) | 0.5 (≈ 0.834 µM) | 0.25 (≈ 0.417 µM) | 0.5 (≈ 0.834 µM) | > 100 | 4.6 | 64 (≈ 107 µM) | 64 (≈ 107 µM) | > 128 | 32 (≈ 53.4 µM) | 32 (≈ 53.4 µM) | 64 (≈ 107 µM) | 3.12 (≈ 5.2 µM) | 3.12 (≈ 5.2 µM) | 0.09 (≈ 0.15 µM) | 3.12 (≈ 5.2 µM) | MIC ([1]; X400): 0.5 µg/mL (≈ 0.834 µM); MIC [3]: 0.5 µg/mL (≈ 0.834 µM); MIC ([6]; E. coli N10, agar dilution, read-out: MIC): 32 µg/mL (≈ 53.4 µM); MIC ([11]; K. pneumoniae X26, agar dilution, read-out: MIC): 2 µg/mL (≈ 3.33 µM); MIC ([12]; E. coli EC14, agar dilution, read-out: MIC): 32 µg/mL (≈ 53.4 µM); MIC ([15]; P. inconstans PR33, agar dilution, read-out: MIC): > 128 µg/mL; MIC ([18]; S. heidelberg X514, agar dilution, read-out: MIC): 64 µg/mL (≈ 107 µM); MIC ([19]; C. freundii CF17, agar dilution, read-out: MIC): > 128 µg/mL; MIC ([24]; E. aerogenes C32, agar dilution, read-out: MIC): 64 µg/mL (≈ 107 µM); MIC ([27]; P. multocida 40G, broth-dilution microtiter, read-out: MIC): 1.56 µg/mL (≈ 2.6 µM); MIC [30]: 3.12 µg/mL (≈ 5.2 µM); MIC [31]: 1.56 µg/mL (≈ 2.6 µM); MIC [32]: 3.12 µg/mL (≈ 5.2 µM); MIC [33]: 6.25 µg/mL (≈ 10.4 µM); MIC [34]: 3.12 µg/mL (≈ 5.2 µM); MIC [35]: 0.78 µg/mL (≈ 1.3 µM); MIC [36]: ≤ 0.78 µg/mL; MIC [37]: 0.39 µg/mL (≈ 0.65 µM)
2 | CCC1OC(=O)CC(O)C(C)C(OC2OC(C)C(O)C(N(C)C)C2O)C(CC=O)CC(C)C(=O)C=CC(C)=CC1CSc1ccccc1 (stereo not shown) [Compound 2, 23-Deoxy-23-(phenyl)thio-OMT] | 0.125 (≈ 0.181 µM) | 0.125 (≈ 0.181 µM) | 0.06 (≈ 0.087 µM) | 64 (≈ 92.8 µM) | 16 (≈ 23.2 µM) | 0.5 (≈ 0.725 µM) | 0.125 (≈ 0.181 µM) | 0.125 (≈ 0.181 µM) | > 100 | 25.7 | 32 (≈ 46.4 µM) | 64 (≈ 92.8 µM) | 64 (≈ 92.8 µM) | 64 (≈ 92.8 µM) | 16 (≈ 23.2 µM) | 64 (≈ 92.8 µM) | 1.56 (≈ 2.26 µM) | 1.56 (≈ 2.26 µM) | 0.09 (≈ 0.13 µM) | 1.56 (≈ 2.26 µM) | MIC ([1]; S. aureus X400, methicillin-resistant strain, agar dilution, read-out: MIC): 0.125 µg/mL (≈ 0.181 µM); MIC ([3]; Streptococcus Group D X66, agar dilution, read-out: MIC): 0.06 µg/mL (≈ 0.087 µM); MIC ([6]; N10): 32 µg/mL (≈ 46.4 µM); MIC ([11]; X26): 2 µg/mL (≈ 2.9 µM); MIC ([12]; EC14): 32 µg/mL (≈ 46.4 µM); MIC ([15]; PR33): 32 µg/mL (≈ 46.4 µM); MIC ([18]; X514): 64 µg/mL (≈ 92.8 µM); MIC ([19]; CF17): 32 µg/mL (≈ 46.4 µM); MIC ([24]; C32): 32 µg/mL (≈ 46.4 µM); MIC ([27]; 40G): 0.78 µg/mL (≈ 1.13 µM); MIC [30]: 3.12 µg/mL (≈ 4.52 µM); MIC [31]: 0.39 µg/mL (≈ 0.565 µM); MIC [32]: 1.56 µg/mL (≈ 2.26 µM); MIC [33]: 3.12 µg/mL (≈ 4.52 µM); MIC [34]: 1.56 µg/mL (≈ 2.26 µM); MIC [35]: 12.5 µg/mL (≈ 18.1 µM); MIC [36]: 0.09 µg/mL (≈ 0.13 µM); MIC [37]: 0.39 µg/mL (≈ 0.565 µM)

— patent US4459290A, “C-23-Modified derivatives of OMT, pharmaceutical compositions and method of use” (priority 1982, dated 1984)
